Results published in article PMC4200852, “Metabolism of Cryptic Peptides Derived from Neuropeptide FF Precursors: The Involvement of Insulin-Degrading Enzyme” (International Journal of Molecular Sciences, 2014).
“Also recorded” adds a separate entry of the source. Ends that are not written are not given here.

Tests used:
IDE [1] = details: statement without data or reference; cited from earlier work
[2] = NPNA metabolism by enzyme fractions separated from rat brain cortex homogenate, ESI-MS; type: in vitro ADME, male Wistar rats; details: for peptide fragment (sequence) formed: 120 min
Description: Brain cortices were rapidly removed from the male Wistar rats (150–200 g) and frozen immediately on dry ice. Tissues were kept at −80 °C until assayed. Brain was homogenized in an ice-cold 20 mM Tris–HCl buffer, pH 7.5, and diluted 1:6. The obtained homogenate was centrifuged twice at 14,000× g for 10 min at 4 °C.
Enzymes present in the rat brain homogenate were separated on the ion-exchange column Econo-Pac High Q (resin volume: 5 mL; Bio-Rad, Berkeley, CA, USA). Gradient separation was performed by the HPLC system Prominence LC-20 AD with a Photodiode Array Detector SPD-M20A (Shimadzu, Tokyo, Japan). The sample volume loaded on the column was 1 mL. The mobile phase consisted of 20 mM Tris–HCl buffer, pH 7.5, and a gradient of NaCl from 0 to 500 mM in 60 min was used. The total flow rate was 1 mL/min. One-point-five-milliliter fractions were collected during the separation and stored in −80 °C prior to further experiments.
Enzyme assays were performed in 0.5-mL Eppendorf tubes. Each homogenized brain fraction was diluted 1:5 with 20 mM Tris–HCl buffer, pH 7.5, and the reaction was initiated by the addition of 5 μg of NPNA and continued by mixing at 37 °C for 120 min (or for 300 min for preparing time course metabolic process). Five-microliter aliquots were taken from the incubation mixture, acidified by 30% MeOH with 0.1% FA and analyzed by ESI-MS (Bruker Esquire 3000) equipped with an autosampler (Famos, Thermo Scientific, earlier LC-Packings, Bremen, Germany). MS/MS analysis was performed to confirm the sequence of the released fragments. Quantitation of the enzyme activity was performed by integration of the peak area of formed products on the mass chromatogram. The samples were incubated with and without amastatin, an aminopeptidase inhibitor.

[3] = test system: IDE, His-Tag, rat, recombinant; assay: Proteolysis by insulin-degrading enzyme (IDE) in vitro, ESI-MS; type: in vitro ADME; details: 37 °C; for stability without IDE: no IDE
From the text: Other peaks assigned to the same fragments with the addition of Na^+ and K^+ are not labelled for simplicity.
IDE, His-Tag, rat, recombinant, from Spodoptera frugiperda, was purchased from Calbiochem (Milan, Italy), and its activity was verified by carrying out enzymatic digestion of insulin solutions according to the experimental procedure previously reported. Methanol (MeOH), formic acid (FA), Tris–HCl buffer, phosphate buffered saline (PBS) buffer and all chemicals used were purchased from Sigma–Aldrich. ZIPTIP C18 was purchased from Millipore (Milan, Italy). IDE enzymatic assays were carried out by incubating the enzyme solution (0.4 μM) at 37 °C with the peptide solution at the indicated concentration. After purification with ZIPTIP C18, 3 μL of the resulting solution were mixed with 50 μL of water and 50 μL of MeOH and injected into the mass spectrometer at 5 μL/min. ESI-MS experiments were performed by using a Finnigan LCQ DECA XP PLUS ion trap spectrometer operating in the positive ion mode and equipped with an orthogonal ESI source (Thermo Electron Corporation, Madison, WI, USA). Sample solutions were injected into the ion source using nitrogen as the drying gas. The mass spectrometer operated with a capillary voltage of 46 V and capillary a temperature of 250 °C, while the spray voltage was 4.3 kV. MS/MS data were interpreted by using the “Molecular Weight Calculator” software by Matthew Monroe freely available on the web.

[4] = NPPW 1–25 degradation in rat brain homogenate, with and without amastatin, ESI-MS; type: in vitro ADME; details: NPPW 1–25, rat brain homogenate
Description: We then tested the degradation of NPPW 1–25 peptide after incubation with rat brain homogenate, with and without the addition of amastatin. The latter was added to exclude the activity of aminopeptidases that are abundant in CNS. Such activity is responsible, among others, for the inactivation of opioid peptides, by truncation of the N-terminal Tyr, thus preventing binding to opioid receptors. […] In Table 2, the assignment of the peptide fragments detected is reported, while in Figure 4, a quantitative detection of their amounts at different incubation times is also shown. […] A further proof of this thesis could be obtained by applying selective IDE inhibitors that could become more easily available in the near future.
Brain cortices were rapidly removed from the male Wistar rats (150–200 g) and frozen immediately on dry ice. Tissues were kept at −80 °C until assayed. Brain was homogenized in an ice-cold 20 mM Tris–HCl buffer, pH 7.5, and diluted 1:6. […]
Enzyme assays were performed in 0.5-mL Eppendorf tubes. […] Five-microliter aliquots were taken from the incubation mixture, acidified by 30% MeOH with 0.1% FA and analyzed by ESI-MS (Bruker Esquire 3000) equipped with an autosampler (Famos, Thermo Scientific, earlier LC-Packings, Bremen, Germany). […] Quantitation of the enzyme activity was performed by integration of the peak area of formed products on the mass chromatogram. […]

IDE [5] = molecular target: T1, IDE (Rattus norvegicus, UniProt P35559); assay: Surface Plasmon Resonance (SPR) OneStep binding to immobilized IDE; details: comparison among the peptides tested
T1 construct: His-Tag; purchased Calbiochem (Milan, Italy); host or cells: Spodoptera frugiperda
T1 sequence (P35559 1-1019): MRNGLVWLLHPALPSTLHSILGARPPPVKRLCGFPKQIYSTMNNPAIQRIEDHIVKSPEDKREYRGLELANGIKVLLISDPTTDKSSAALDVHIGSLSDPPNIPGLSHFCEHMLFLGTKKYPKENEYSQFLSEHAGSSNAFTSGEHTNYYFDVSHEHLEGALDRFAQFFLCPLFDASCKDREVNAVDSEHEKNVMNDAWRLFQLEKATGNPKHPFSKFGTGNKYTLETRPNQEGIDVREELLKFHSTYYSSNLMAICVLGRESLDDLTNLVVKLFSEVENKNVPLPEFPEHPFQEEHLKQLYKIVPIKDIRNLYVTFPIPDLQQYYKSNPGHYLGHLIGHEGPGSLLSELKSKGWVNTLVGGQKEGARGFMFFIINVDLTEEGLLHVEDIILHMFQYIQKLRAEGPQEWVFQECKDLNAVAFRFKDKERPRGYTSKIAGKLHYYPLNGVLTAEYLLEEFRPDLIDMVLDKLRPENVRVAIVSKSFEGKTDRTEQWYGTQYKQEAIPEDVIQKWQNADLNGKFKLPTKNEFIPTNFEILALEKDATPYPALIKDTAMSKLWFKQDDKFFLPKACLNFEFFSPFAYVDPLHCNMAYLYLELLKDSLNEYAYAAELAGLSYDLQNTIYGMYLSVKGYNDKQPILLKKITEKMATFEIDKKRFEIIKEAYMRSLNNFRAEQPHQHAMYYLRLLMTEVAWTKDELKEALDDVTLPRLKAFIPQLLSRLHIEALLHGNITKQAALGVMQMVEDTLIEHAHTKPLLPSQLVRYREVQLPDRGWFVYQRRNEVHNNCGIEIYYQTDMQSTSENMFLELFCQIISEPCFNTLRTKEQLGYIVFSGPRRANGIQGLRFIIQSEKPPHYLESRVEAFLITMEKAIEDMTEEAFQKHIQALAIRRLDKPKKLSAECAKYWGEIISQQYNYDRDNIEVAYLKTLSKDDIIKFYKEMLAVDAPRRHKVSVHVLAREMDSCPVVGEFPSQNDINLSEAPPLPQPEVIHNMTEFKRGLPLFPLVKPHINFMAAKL

[6] = molecular target: T2, Insulin-degrading enzyme (IDE), His-Tag, rat, recombinant (rat, UniProt P35559 1-1019); assay: SPR; SensiQ Pioneer, OneStep approach; IDE immobilised by amine coupling on a COOH5 chip; peptides in solution (initial concentrations NPSA 74 uM, NPNA 74 uM, NPPW 150 uM); 0.01 M HEPES, 0.15 M NaCl, pH 7.4; fitted with Qdat, one binding site model for NPNA, two binding site model for NPSA and NPPW; details: both partners purified
T2 construct: Insulin-degrading enzyme, rat, recombinant with His-Tag; Bought protein; immobilised by amine coupling for SPR; source: bought: Calbiochem (recombinant, from Spodoptera frugiperda)
T2 sequence (looked up): T1 sequence (P35559 1-1019)

CC(C)C[C@@H](N)[C@H](O)C(=O)N[C@H](C(=O)N[C@H](C(=O)N[C@@H](CC(=O)O)C(=O)O)C(C)C)C(C)C [amastatin, reference compound]
inhibition of IDE (IDE [1]): not inhibited by amastatin

NAWGPWSKEQLSPQA [NPNA, NAWGPWSKEQLSPQA]
time of highest amount of main product 1–11 ([2]; Fraction 23, 37 °C, pH 7.5): 4 h | peptide fragment (sequence) formed ([2]; Fraction 23 from Econo-Pac High Q, 5 μg NPNA, 20 mM Tris–HCl pH 7.5, 37 °C, ESI-MS): SPQA | main product, time course ([2]; Fraction 26, 37 °C, pH 7.5): SKEQL | peptide fragment (sequence) formed ([2]; Fraction 26 from Econo-Pac High Q, 5 μg NPNA, 20 mM Tris–HCl pH 7.5, 37 °C, ESI-MS): NAW and GPW and SKEQL and SPQA | cleavage position by brain cortex proteases ([2]; rat brain cortex fractions, 20 mM Tris–HCl pH 7.5, 37 °C, ESI-MS): mainly at the carboxyl side of the tryptophan and leucine; also recorded: mainly at the carboxyl side of tryptophan and leucine | time of highest product intensity ([2]; time course, rat brain cortex fractions, 5 μg NPNA, 20 mM Tris–HCl pH 7.5, 37 °C, ESI-MS): 4 h | degradation by IDE ([3]; NPNA incubated with IDE, up to 24 h, ESI-MS): not cleaved by IDE; also recorded: IDE is not able to degrade NPNA; also recorded: not degraded by IDE; also recorded: does not produce any NPNA fragments at all incubation times investigated

PQRFGRNAWGPWSKEQLSPQAREFW [NPPW 1–25]
major cleavage site [4]: Gln20–Ala21 | most abundant peptide fragment [4]: NPPW 1–20 | cleavage sites by IDE ([3]; 50 μM NPPW 1–25, 8 nM IDE, PBS, 8 h, ESI-MS): Gly5–Arg6, Ala8–Trp9, Gly10–Pro11 and Gln20–Ala21 | fragments produced by IDE ([3]; 50 μM NPPW 1–25, 8 nM IDE, PBS, 8 h, ESI-MS, MS/MS): WGPWSKEQLSPQ; also recorded: PQRFGRNAWGPWSKEQLSPQ at high abundance | major cleavage site by IDE ([3]; 50 μM NPPW 1–25, 8 nM IDE, PBS, ESI-MS): Gln20–Ala21 | stability without IDE ([3]; 50 μM NPPW 1–25, PBS, 8 h, ESI-MS): only the full-length peptide is detected | fragment generated only at longer incubation times with IDE ([3]; NPPW 1–25, more than 2 h, data not shown): PWSKEQLSPQAREFW | most abundant fragment produced by IDE ([3]; NPPW 1–25 with IDE, ESI-MS): PQRFGRNAWGPWSKEQLSPQ | relative KD for both binding sites (IDE [5]): lowest KD values for both binding sites

SAWGSWSKEQLNPQA [NPSA, SAWGSWSKEQLNPQA]
main cleavage site by IDE ([3]; 50 μM NPSA, 8 nM IDE, PBS, 2 h, ESI-MS): between Trp6 and Ser7 | fragments produced by IDE ([3]; 50 μM NPSA, 8 nM IDE, PBS, 2 h, ESI-MS, confirmed by MS/MS): SAWGSW; also recorded: SKEQLNPQA | main cleavage site by IDE ([3]; 50 μM NPSA, 8 nM IDE, PBS, 2 h, ESI-MS, listed as NPSA 1–15): Trp6–Ser7 | stability without IDE ([3]; 50 μM NPSA, PBS, 2 h, ESI-MS): only the full-length peptide is detected | time to complete degradation by IDE ([3]; (IDE) = 1/6000 (NPSA), disappearance of NPSA molecular peak, 50 μM NPSA, PBS, ESI-MS): two

B1: NPNA (NAWGPWSKEQLSPQA {1-15}) (peptide)
peptide: NAWGPWSKEQLSPQA
notes: NPNA, residues 85-99 of rat pro-NPFFA (neuropeptide FF precursor); also called NPNA 1-15; source: synthetic peptide (Fmoc solid phase synthesis, purified by HPLC)
Kd [6]: 3.98 mM
